How the values were obtained:
[1] = biological target: Beta-3 adrenergic receptor (Homo sapiens, UniProt P13945); assay: GPCRScan assay: inhibition of Beta3; set-up: radioligand conc. used [nm] 0.2 – 0.5, parental cells HEK Flp-In
[2] = biological target: Activin receptor type-1 (Homo sapiens) (UniProt Q04771); settings: Compound concentration 1000.0 nM
[3] = biological target: BMP-2-inducible protein kinase (Homo sapiens) (UniProt Q9NSY1); settings: Compound concentration 1000.0 nM
[4] = biological target: Calcium/calmodulin-dependent protein kinase kinase 1 (Homo sapiens) (UniProt Q8N5S9); settings: Compound concentration 1000.0 nM
[5] = biological target: Discoidin domain-containing receptor 2 (Homo sapiens) (UniProt Q16832); settings: Compound concentration 1000.0 nM
[6] = biological target: Mitogen-activated protein kinase kinase kinase 12 (Homo sapiens) (UniProt Q12852); settings: Compound concentration 1000.0 nM
[7] = biological target: Serine/threonine-protein kinase 17B (Homo sapiens) (UniProt O94768); settings: Compound concentration 1000.0 nM
[8] = biological target: Ephrin type-A receptor 8 (Homo sapiens) (UniProt P29322); settings: Compound concentration 1000.0 nM
[9] = system: Receptor-type tyrosine-protein kinase FLT3 (Homo sapiens), P36888 [N841I]; settings: Compound concentration 1000.0 nM
[10] = biological target: Rhodopsin kinase GRK7 (Homo sapiens) (UniProt Q8WTQ7); settings: Compound concentration 1000.0 nM
[11] = biological target: Serine/threonine-protein kinase haspin (Homo sapiens) (UniProt Q8TF76); settings: Compound concentration 1000.0 nM
[12] = biological target: Serine/threonine-protein kinase 10 (Homo sapiens) (UniProt O94804); settings: Compound concentration 1000.0 nM
[13] = biological target: Leukocyte tyrosine kinase receptor (Homo sapiens) (UniProt P29376); settings: Compound concentration 1000.0 nM
[14] = biological target: Dual specificity mitogen-activated protein kinase kinase 1 (Homo sapiens) (UniProt Q02750); settings: Compound concentration 1000.0 nM
[15] = biological target: Dual specificity mitogen-activated protein kinase kinase 2 (Homo sapiens) (UniProt P36507); settings: Compound concentration 1000.0 nM
[16] = system: Hepatocyte growth factor receptor (Homo sapiens), P08581 [M1250T]; settings: Compound concentration 1000.0 nM
[17] = biological target: Serine/threonine-protein kinase MRCK alpha (Homo sapiens) (UniProt Q5VT25); settings: Compound concentration 1000.0 nM
[18] = biological target: Serine/threonine-protein kinase Nek1 (Homo sapiens) (UniProt Q96PY6); settings: Compound concentration 1000.0 nM
[19] = biological target: Mitogen-activated protein kinase 13 (Homo sapiens) (UniProt O15264); settings: Compound concentration 1000.0 nM
[20] = biological target: Serine/threonine-protein kinase PAK 1 (Homo sapiens) (UniProt Q13153); settings: Compound concentration 1000.0 nM
[21] = biological target: Serine/threonine-protein kinase PAK 4 (Homo sapiens) (UniProt O96013); settings: Compound concentration 1000.0 nM
[22] = biological target: Cyclin-dependent kinase 16 (Homo sapiens) (UniProt Q00536); settings: Compound concentration 1000.0 nM
[23] = system: Phosphatidylinositol 4,5-bisphosphate 3-kinase catalytic subunit alpha isoform (Homo sapiens), P42336 [C420R]; settings: Compound concentration 1000.0 nM
[24] = system: Proto-oncogene tyrosine-protein kinase receptor Ret (Homo sapiens), P07949 [V804M]; settings: Compound concentration 1000.0 nM
[25] = biological target: Dual serine/threonine and tyrosine protein kinase (Homo sapiens) (UniProt Q6XUX3); settings: Compound concentration 1000.0 nM
[26] = biological target: Ribosomal protein S6 kinase alpha-3 (Homo sapiens) (UniProt P51812); settings: Compound concentration 1000.0 nM
[27] = biological target: Ribosomal protein S6 kinase beta-1 (Homo sapiens) (UniProt P23443); settings: Compound concentration 1000.0 nM
[28] = biological target: NUAK family SNF1-like kinase 2 (Homo sapiens) (UniProt Q9H093); settings: Compound concentration 1000.0 nM
[29] = biological target: TRAF2 and NCK-interacting protein kinase (Homo sapiens) (UniProt Q9UKE5); settings: Compound concentration 1000.0 nM
[30] = biological target: 5-hydroxytryptamine receptor 1D (Homo sapiens) (UniProt P28221); settings: Compound concentration 10.0 uM
[31] = biological target: T1, Alpha-2A adrenergic receptor (Homo sapiens) (UniProt P08913); settings: Compound concentration 10.0 uM
T1 sequence (whole entry): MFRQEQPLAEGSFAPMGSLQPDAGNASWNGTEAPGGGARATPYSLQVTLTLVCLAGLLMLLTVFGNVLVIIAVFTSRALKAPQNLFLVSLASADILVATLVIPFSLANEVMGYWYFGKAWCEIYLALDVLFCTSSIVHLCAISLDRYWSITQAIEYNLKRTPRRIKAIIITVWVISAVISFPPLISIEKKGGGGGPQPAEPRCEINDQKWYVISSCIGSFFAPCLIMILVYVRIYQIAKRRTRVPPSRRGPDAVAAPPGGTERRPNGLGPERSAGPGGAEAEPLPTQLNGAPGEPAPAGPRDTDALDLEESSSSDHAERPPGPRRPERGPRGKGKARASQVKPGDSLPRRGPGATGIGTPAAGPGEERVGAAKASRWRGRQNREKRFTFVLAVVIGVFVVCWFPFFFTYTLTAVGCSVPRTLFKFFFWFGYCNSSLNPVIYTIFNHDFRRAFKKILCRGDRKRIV

[32] = biological target: T2, Alpha-2B adrenergic receptor (Homo sapiens) (UniProt P18089); settings: Compound concentration 10.0 uM
T2 sequence (whole entry): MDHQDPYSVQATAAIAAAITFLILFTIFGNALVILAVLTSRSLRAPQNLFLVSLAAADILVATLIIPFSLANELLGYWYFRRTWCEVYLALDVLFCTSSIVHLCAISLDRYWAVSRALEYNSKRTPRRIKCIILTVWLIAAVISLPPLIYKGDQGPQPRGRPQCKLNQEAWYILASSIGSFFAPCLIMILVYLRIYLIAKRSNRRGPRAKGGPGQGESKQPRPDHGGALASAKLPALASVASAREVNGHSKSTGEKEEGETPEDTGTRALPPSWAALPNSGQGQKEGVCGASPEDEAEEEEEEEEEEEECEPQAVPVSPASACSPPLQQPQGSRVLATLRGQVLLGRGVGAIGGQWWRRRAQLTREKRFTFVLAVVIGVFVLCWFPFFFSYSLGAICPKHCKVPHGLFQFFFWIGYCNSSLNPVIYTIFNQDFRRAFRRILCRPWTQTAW

Chain of Cyclin-dependent kinase 16 (Homo sapiens) (Q00536 whole entry, canonical isoform): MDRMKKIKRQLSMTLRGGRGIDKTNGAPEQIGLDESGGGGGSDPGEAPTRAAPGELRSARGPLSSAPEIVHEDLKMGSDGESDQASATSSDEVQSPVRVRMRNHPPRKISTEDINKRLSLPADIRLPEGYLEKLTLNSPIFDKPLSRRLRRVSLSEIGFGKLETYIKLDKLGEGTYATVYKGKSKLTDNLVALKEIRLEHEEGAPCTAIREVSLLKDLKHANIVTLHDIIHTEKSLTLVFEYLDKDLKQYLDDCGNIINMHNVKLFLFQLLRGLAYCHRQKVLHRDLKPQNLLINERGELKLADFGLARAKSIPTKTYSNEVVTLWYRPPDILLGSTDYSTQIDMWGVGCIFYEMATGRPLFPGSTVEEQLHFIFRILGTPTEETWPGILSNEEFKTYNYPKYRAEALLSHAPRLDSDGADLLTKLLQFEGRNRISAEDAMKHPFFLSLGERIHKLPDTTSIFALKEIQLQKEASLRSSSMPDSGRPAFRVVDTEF
Chain of Calcium/calmodulin-dependent protein kinase kinase 1 (Homo sapiens) (Q8N5S9 whole entry, looked up, the tested form may be a part): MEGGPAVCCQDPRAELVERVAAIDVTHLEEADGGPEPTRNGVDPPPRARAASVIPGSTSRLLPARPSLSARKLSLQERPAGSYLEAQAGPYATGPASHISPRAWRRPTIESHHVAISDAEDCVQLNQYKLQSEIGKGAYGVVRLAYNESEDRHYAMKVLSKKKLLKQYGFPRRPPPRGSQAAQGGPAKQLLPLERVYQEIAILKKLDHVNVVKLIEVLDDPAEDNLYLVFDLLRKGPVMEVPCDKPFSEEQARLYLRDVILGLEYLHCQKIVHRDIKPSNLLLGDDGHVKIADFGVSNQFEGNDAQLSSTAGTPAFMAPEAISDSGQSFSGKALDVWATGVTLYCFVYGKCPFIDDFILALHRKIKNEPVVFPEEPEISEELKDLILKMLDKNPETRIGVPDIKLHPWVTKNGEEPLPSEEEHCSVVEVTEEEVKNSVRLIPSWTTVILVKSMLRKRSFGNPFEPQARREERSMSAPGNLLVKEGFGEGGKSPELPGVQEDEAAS
Chain of Leukocyte tyrosine kinase receptor (Homo sapiens) (P29376 whole entry): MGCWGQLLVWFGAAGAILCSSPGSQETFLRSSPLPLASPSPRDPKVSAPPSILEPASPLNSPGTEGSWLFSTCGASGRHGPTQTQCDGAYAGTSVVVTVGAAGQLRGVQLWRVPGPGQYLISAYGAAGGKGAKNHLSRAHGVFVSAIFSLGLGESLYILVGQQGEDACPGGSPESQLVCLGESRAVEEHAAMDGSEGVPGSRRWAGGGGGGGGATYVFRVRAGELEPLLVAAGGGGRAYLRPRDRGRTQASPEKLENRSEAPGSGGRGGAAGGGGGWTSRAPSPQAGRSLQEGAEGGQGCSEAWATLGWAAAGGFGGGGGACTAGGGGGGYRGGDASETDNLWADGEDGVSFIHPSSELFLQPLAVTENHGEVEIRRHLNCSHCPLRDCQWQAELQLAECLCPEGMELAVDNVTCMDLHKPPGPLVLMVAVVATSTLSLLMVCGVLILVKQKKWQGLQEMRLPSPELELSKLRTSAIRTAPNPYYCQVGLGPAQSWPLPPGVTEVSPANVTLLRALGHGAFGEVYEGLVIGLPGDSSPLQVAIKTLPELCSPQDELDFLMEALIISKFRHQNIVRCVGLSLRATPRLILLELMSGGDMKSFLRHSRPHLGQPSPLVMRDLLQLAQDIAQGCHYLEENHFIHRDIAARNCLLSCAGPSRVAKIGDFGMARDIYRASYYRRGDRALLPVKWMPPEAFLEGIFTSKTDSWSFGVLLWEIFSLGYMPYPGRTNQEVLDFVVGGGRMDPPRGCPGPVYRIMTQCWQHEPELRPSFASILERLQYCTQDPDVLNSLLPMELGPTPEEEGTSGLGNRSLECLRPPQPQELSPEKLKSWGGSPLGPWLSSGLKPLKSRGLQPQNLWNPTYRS
Chain of Ribosomal protein S6 kinase beta-1 (Homo sapiens) (P23443 whole entry, looked up): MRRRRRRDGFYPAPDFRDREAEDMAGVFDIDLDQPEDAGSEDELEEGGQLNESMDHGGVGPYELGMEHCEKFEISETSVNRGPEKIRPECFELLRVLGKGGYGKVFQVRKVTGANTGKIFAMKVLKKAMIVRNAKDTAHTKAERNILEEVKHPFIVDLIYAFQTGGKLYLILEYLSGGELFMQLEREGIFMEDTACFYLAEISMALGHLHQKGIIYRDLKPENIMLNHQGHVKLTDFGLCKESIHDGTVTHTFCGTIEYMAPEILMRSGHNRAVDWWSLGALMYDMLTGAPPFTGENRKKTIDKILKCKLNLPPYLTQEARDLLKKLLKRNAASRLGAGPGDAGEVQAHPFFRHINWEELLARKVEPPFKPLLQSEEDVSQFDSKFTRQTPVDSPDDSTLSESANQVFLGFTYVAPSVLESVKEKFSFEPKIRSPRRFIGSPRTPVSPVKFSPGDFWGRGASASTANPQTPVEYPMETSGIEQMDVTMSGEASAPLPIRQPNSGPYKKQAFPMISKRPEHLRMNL
Chain of Phosphatidylinositol 4,5-bisphosphate 3-kinase catalytic subunit alpha isoform (Homo sapiens), P42336 [C420R] (P42336 whole entry C420R, canonical isoform): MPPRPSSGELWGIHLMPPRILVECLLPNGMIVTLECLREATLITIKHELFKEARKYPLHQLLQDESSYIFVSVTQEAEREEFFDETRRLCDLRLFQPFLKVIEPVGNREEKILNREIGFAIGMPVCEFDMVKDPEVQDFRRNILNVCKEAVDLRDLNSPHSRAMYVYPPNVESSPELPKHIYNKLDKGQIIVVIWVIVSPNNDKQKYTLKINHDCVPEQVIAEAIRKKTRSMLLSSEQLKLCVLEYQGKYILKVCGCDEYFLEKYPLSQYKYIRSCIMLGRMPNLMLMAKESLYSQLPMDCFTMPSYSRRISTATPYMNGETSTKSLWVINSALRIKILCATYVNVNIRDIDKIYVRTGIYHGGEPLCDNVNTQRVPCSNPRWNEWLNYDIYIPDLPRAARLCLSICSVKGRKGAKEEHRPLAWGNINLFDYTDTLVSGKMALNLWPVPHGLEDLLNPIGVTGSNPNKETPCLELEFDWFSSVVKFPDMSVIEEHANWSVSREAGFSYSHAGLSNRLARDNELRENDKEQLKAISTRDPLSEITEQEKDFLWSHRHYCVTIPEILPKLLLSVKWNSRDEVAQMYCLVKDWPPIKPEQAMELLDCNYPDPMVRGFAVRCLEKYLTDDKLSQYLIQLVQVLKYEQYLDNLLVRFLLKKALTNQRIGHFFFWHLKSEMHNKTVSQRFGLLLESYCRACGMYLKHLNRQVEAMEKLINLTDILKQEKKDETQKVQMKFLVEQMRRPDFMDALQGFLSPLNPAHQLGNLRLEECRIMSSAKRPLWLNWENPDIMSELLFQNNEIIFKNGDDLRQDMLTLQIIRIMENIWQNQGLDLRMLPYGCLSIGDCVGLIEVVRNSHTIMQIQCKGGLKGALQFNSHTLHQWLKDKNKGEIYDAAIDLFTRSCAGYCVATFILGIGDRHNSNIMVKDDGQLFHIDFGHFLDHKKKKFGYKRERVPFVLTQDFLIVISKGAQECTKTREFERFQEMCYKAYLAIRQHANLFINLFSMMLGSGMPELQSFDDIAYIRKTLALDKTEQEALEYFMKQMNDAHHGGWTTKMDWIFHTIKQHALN
Chain of Ribosomal protein S6 kinase alpha-3 (Homo sapiens) (P51812 whole entry): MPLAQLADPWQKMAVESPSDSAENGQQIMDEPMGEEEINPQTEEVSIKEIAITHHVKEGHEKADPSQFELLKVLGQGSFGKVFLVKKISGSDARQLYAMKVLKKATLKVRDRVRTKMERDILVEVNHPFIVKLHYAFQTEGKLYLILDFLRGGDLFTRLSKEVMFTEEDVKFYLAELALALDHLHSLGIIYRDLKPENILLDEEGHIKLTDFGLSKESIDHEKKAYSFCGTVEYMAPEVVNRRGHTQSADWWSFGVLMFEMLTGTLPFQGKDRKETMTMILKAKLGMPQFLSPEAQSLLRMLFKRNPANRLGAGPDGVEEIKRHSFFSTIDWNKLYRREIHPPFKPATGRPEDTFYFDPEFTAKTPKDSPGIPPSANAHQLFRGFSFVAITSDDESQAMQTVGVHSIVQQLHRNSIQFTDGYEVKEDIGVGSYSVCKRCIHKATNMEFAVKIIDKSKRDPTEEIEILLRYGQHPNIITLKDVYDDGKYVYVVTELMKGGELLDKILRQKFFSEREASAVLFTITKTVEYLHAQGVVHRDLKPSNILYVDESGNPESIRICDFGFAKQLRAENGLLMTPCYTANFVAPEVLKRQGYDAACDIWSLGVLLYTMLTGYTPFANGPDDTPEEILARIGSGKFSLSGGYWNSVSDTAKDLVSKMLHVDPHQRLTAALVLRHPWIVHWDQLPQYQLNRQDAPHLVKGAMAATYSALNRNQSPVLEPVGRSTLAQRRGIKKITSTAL
Chain of NUAK family SNF1-like kinase 2 (Homo sapiens) (Q9H093 whole entry): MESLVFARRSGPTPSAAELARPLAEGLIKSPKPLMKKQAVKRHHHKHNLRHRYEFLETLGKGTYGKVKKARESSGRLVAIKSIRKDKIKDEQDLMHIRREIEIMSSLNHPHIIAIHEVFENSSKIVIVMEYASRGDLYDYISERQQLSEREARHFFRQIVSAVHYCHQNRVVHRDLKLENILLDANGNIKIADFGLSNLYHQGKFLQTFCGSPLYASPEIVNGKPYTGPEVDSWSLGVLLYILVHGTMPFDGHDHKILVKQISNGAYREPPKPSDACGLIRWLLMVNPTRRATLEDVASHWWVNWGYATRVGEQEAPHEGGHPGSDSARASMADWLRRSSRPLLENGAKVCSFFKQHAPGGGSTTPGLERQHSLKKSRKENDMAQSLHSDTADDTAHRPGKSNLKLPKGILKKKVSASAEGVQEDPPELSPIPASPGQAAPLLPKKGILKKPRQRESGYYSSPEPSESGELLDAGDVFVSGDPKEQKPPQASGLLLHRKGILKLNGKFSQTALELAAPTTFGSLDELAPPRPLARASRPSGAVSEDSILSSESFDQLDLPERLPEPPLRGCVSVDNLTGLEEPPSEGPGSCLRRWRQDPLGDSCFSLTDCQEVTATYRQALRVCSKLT

SMILES	Ki [1] [µM]	residual activity [2] [%]	residual activity [3] [%]	residual activity [4] [%]	residual activity [5] [%]	residual activity [6] [%]	residual activity [7] [%]	residual activity [8] [%]	residual activity [9] [%]	residual activity [10] [%]	residual activity [11] [%]	residual activity [12] [%]	residual activity [13] [%]	residual activity [14] [%]	residual activity [15] [%]	residual activity [16] [%]	residual activity [17] [%]	residual activity [18] [%]	residual activity [19] [%]	residual activity [20] [%]	also measured
Cc1c(C(=O)O)cc(-c2ccc(C3CCNCC3)cc2)c2ccc(-c3ccc(C(F)(F)F)cc3)cc12 [PPTN-NC]	3.26	100	83	100	100	100	100	100	100	91	100	100	100	100	100	97	100	100	96	100	residual activity [21]: 100%; residual activity [22]: 100%; residual activity [23]: 100%; residual activity [24]: 98%; residual activity [25]: 100%; residual activity [26]: 100%; residual activity [27]: 100%; residual activity [28]: 100%; residual activity [29]: 100%; inhibition [30]: 30.1%; inhibition [31]: 34.8%; inhibition [32]: 79%
O=C(O)c1cc(-c2ccc(C3CCNCC3)cc2)c2ccc(-c3ccc(C(F)(F)F)cc3)cc2c1 [PPTN]	2.92	100	84	100	100	100	100	100	100	85	100	100	100	100	90	86	100	100	97	100	residual activity [21]: 100%; residual activity [22]: 100%; residual activity [23]: 95%; residual activity [24]: 100%; residual activity [25]: 100%; residual activity [26]: 100%; residual activity [27]: 100%; residual activity [28]: 100%; residual activity [29]: 100%; inhibition [30]: 33.6%; inhibition [31]: 38.2%; inhibition [32]: 85.4%

Source: ChEMBL document CHEMBL4507292 (2021)
